Here are results for two molecules from patent US8323706B2, “Antiestrogenic glyceollins suppress human breast and ovarian carcinoma proliferation and tumorigenesis” (The United States of America, as represented by the …, priority 2005, dated 2012).

For series [1], the system named is progesterone receptor (PR). Briefly: Progesterone receptor immunohistochemistry in BG1 tumor explants. Type of series: in vivo, mice. Particulars: treatment alone vs control; BG1 tumors. An excerpt: (§1) Tumor explants were resected at necropsy, fixed in 70% ethanol, embedded in paraffin, and immunostained using a primary monoclonal antibody for human progesterone receptor (PR) (NCL-PGR, Novocastra, Newcastle-upon-Tyne, UK). Staining methods included antigen-retrieval with citrate buffer (pH 6.0), biotinylated rabbit anti-mouse Fc antibody as a linking reagent, alkaline phosphatase-conjugated streptavidin as the label, and Vector Red as the chromogen (Vector Laboratories, Burlingame, Calif.). Cell staining was quantified by a computer-assisted counting technique, using a grid filter to select cells for counting (Darvill et al., supra; Burow et al., supra). At least two microscopic fields were randomly selected for each tumor and 200 cells were counted at 40× magnification. Numbers of positively stained cells were expressed as a percentage of the total number examined. All measurements were made blinded to treatment group.
(§2) Progesterone receptor expression is an estrogen-sensitive marker driven by ER transactivation. In this study we used PR immunostaining to evaluate (a) whether glyceollin treatment alone was stimulating the ER as an agonist and (b) whether glyceollin treatment with estradiol (E2) was antagonizing ER activation.

The next series concerns Mouse uteri. Description: Uterine weight and morphology (uterotrophic assay) in nu/nu mice.
Series [2] deals with MCF-7 breast carcinoma cell. Briefly: In vitro MCF-7 colony (clonogenicity) assay. Type of series: cell-based, human. The following applies: estrogen treatment alone. As for the experimental part:
The MCF-7N cell variant is a subclone of MCF-7 cells from the American Type Culture Collection (Manassas, Va.) that was generously provided by Louise Nutter (University of Minnesota, Minneapolis, Minn.) and has been previously described (Graham et al., supra). The BG-1 cell line has been previously described. MCF-7 and BG-1 cells were grown in Dulbecco's modified minimal medium (pH 7.4; Life Technologies, Inc., Grand Island, N.Y.) supplemented with 10% fetal bovine serum (Hyclone, Salt Lake City, Utah). For studies with estrogen, the cells were cultured in medium supplemented with 5% charcoal-stripped fetal bovine serum. The cells were incubated at 37° C. in an atmosphere of 5% CO2 and air.
MCF-7 cells are plated at 10^3/well in 6 well Cluster dishes, and incubated overnight. Cells are cultured and treated in DMEM without phenol red; phenol red interacts with estrogen receptors. Treatment and control plates were incubated at 37° C., 5% CO2. Plates were observed periodically. When colonies were of a size of 50 cells or more, at Day 14, cells were fixed with glutaraldehyde for 30 min at 37° C., washed, and stained with Crystal violet (0.4%) for 1 hr. Colonies were counted manually. This method is used to study the effects of chemical or physical agents on cell survival and proliferation; 1 colony=1 cell. […]

Series [3] deals with progesterone receptor (PR). Briefly: Progesterone receptor immunohistochemistry in MCF-7 tumor explants. Particulars: treatment alone vs control; MCF-7 tumors. Format: in vivo, mice.
From the text: as §1, §2

The subject of series [4] is BG-1 ovarian carcinoma cells. Briefly: BG-1 xenograft tumor growth in ovariectomized nu/nu mice. The following applies: estradiol pellet alone; day 20; mean±SEM. Type of series: in vivo. The protocol:
(§3) Cages, bedding, food, and water were autoclaved before use. […] Tumor size was measured every two days using calipers.
(§4) The in vivo effects of glyceollins on tumor growth formation were determined. MCF-7 or BG-1 cells were implanted into the mammary fat pad of female ovariectomized nude mice. Mice were divided into two groups: those animals implanted s.c. with estradiol pellets and those without. Tumors were implanted using Matrigel (reduced factor) to enhance tumor incidence and promote tumor growth in the presence and absence of estrogen. Glyceollins (or vehicle) were injected daily for 20 days. Measurable tumors were observed on Day 8 for both MCF-7 cells (FIG. 3) and BG-1 cells (FIG. 4). […] Estrogen stimulated the formation of rapidly growing tumors in both MCF-7 and BG-1 implanted mice, reaching a maximal size of 3074±843 mm^3 in MCF-7 and 3836±756 mm^3 in BG-1 implanted animals by day 20 of treatment. In the negative control animals (without estrogen pellets or glyceollins), tumor incidence occurred on […] and tumors grew slowly with a maximal size of 899±24 mm^3 for MCF-7 cells and 976±42 mm^3 for BG-1 cells on day 20 of treatment. […]
(§5) Data Analysis: Data for MCF-7N and BG-1 tumor size were analyzed separately using repeated measures two-way ANOVA with treatment and time as independent factors (SigmaStat 3.1). […]

In series [5] the test system is MCF-7 breast carcinoma cells. Briefly: MCF-7 xenograft tumor growth in ovariectomized nu/nu mice. Format: in vivo. The following applies: estradiol pellet alone; day 20; mean±SEM. As for the experimental part: as §3, §4, §5

SMILES strings stand for the structures.

With `C[C@]12CC[C@@H]3c4ccc(O)cc4CC[C@H]3[C@@H]1CC[C@@H]2O` [Glyceollin E2, 17β-estradiol], the PR expression result in series [1] and in series [3] was “significantly increased PR expression” each time. Moreover, the uterine histology entry with Mouse uteri (H&E-stained uteri, treatment alone) is “markedly larger with epithelial pseudostratification, stromal edema and hyperplasia, and increased numbers of endometrial glands”. In addition, the “Uterine area, uterine diameter, and epithelial height” value in the series on Mouse uteri (treatment alone vs control) is recorded as “significantly increased”. For the same molecule, the colony formation result in series [2] was “enhanced colony formation”. The “tumor size (maximal)” value in series [4] was found to be 3836±756 mm^3; in series [5] it was 3074±843 mm^3.

As for `CC/C(=C(\c1ccccc1)c1ccc(OCCN(C)C)cc1)c1ccccc1` [tamoxifen], the “uterine fixed weight over control” value in the series with Mouse uteri (treatment alone, 20 days) is reported as “increase uterine fixed weight over control”.
